Measured values taken from US20260207570A1, “OPTIMIZED DOSING OF LERIGLITAZONE” (MINORYX THERAPEUTICS S.L., priority 2022, published 2026).

Columns and labels:
[1] = Adult PBPK model (Simcyp) development, simulation and verification; parameters: species or system human
Excerpt: A PBPK model for leriglitazone HCl was developed with the Simcyp Population-Based Simulator Version 17 release 1.
A first-order absorption model with inputs based on clinical data was used to describe the absorption kinetics of the drug. Dose-dependent ka values were estimated from phase 1 SAD data and were incorporated to account for the less than dose proportional increase in the Cmax of leriglitazone as well as the negative food effect on the Cmax (Table 2).
A global scalar of 0.7 was applied to match the estimated value. The full PBPK model was applied in all simulations of the plasma concentration-time profiles of the drug in order to recover the shape of the concentration-time profiles.
Predictions of plasma concentration-time profiles and clearance were performed in the Simcyp Simulator using the default Sim-Healthy volunteer population, whose parameter values have been described previously. Howgate, E. M., et al., Xenobiotica Fate Foreign Compd. Biol. Syst. 36, 473-497 (2006); Inoue, S. et al., Xenobiotica Fate Foreign Compd. Biol. Syst. 36, 499-513 (2006). The trial design used for simulation of the plasma concentration-time profile of a single dose of leriglitazone in fasted and fed subjects was based on the phase 1 SAD results. Concentration-time profiles, using 10 virtual trials of 6 subjects (all male) aged 21 to 50 years receiving a single oral dose of 30, 90 or 270 mg under the fasted conditions and a single oral dose of 90 or 270 mg under fed conditions were simulated over a duration of 144 hours. Visual checks of the predicted concentration-time profiles were performed and the key PK parameters (AUC, Cmax and Tmax) were compared to those observed in the phase 1 study (Table 8).
The PBPK model was verified by comparing the predicted concentration-time profiles with the observed phase 1 MAD data. The trial design used for simulation was based on multiple doses of 135 mg or 270 mg in fed healthy subjects. […]

CYP3A4 = CYP3A4 (Homo sapiens, UniProt P08684); assay: CYP3A4 contribution to clearance (fm, CLint) for the PBPK model
Excerpt: (§1) CYP2C8 and CYP3A4 were identified in vitro as the major contributing enzymes of leriglitazone with CYP2C8 mostly responsible for the formation of the main metabolite M3. Kinetic parameters of human CYP2C8 and CYP3A4 mediated metabolism of leriglitazone were studied in in vitro studies using recombinant CYP3A4 and CYP2C8 enzymes (ADMESCOPE, Finland). […] As the disappearance of leriglitazone was very slow especially at high initial concentrations, the accuracy of the fit was not as good as based on M3 formation. […] Thus, it was not possible to fit the kinetic parameters Km and Vmax.

CYP2C8 = target: T1, CYP2C8 (Homo sapiens, UniProt P10632); assay: Metabolism kinetics with recombinant CYP2C8; assay type: in vitro ADME; conditions: therapeutic range, up to 30 μM initial incubation concentration
T1 sequence (P10632 1-490): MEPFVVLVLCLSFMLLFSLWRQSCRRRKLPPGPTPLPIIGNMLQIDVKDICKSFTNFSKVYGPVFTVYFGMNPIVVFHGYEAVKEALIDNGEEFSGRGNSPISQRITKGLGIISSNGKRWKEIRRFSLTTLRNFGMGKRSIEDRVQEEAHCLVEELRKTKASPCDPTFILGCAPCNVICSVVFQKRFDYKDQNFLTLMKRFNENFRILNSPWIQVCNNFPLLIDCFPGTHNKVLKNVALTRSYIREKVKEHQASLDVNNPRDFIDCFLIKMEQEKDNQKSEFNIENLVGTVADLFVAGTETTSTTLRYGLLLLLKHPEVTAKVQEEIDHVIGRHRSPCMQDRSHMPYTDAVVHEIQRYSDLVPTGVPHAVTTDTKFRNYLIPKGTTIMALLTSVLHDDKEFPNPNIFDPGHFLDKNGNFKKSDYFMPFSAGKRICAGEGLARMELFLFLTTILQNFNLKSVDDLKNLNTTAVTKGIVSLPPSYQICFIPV
Excerpt: as §1

[2] = Phase 1 safety and tolerability (treatment-emergent adverse events); assay type: in vivo, human
Description: Study design: A phase 1, randomized, double blind, placebo-controlled, single-center clinical study in 33 male healthy volunteers (HV) (19-54 years, 63.2-95.7 Kg) was conducted with leriglitazone HCl and divided in two parts: a single ascending dose (SAD) with three dose levels (30, 90 and 270 mg) in fasted conditions, followed with two dose levels (90 and 270 mg) in fed conditions; a multiple ascending dose (MAD) with a double-blind, parallel-design with two dose levels (135 and 270 mg) for 8 days and a separate cohort of subjects in an open-label parallel design with two dose levels (135 and 270 mg) including cerebrospinal fluid (CSF) collection on day 8. In the fasted conditions a fasting period of at least 4 hours was required before obtaining plasma samples. The food effect (FE) was assessed by comparing fasted with fed conditions (dosing after a high-fat breakfast per FDA definition with a calculated caloric content of 918 kcal). In the MAD part (fed) the medication was taken before a normal breakfast. Leriglitazone HCl was supplied by ChemConnection and an oral suspension of leriglitazone (20% w/v kleptose, 2% ethanol in 100 mM phosphate buffer pH=7.8) at 6 mg/ml was used in the study. Safety: Safety and tolerability assessments consisted of adverse events (AEs), clinical laboratory, vital signs, 12-lead electrocardiogram (ECG), and physical examination.

[3] = PBPK model input parameters: blood and plasma binding; assay type: in vitro ADME, human
[4] = PBPK model input parameters: physicochemical
[5] = before accounting for biliary and renal clearance

Chain of CYP3A4 (P08684 whole entry): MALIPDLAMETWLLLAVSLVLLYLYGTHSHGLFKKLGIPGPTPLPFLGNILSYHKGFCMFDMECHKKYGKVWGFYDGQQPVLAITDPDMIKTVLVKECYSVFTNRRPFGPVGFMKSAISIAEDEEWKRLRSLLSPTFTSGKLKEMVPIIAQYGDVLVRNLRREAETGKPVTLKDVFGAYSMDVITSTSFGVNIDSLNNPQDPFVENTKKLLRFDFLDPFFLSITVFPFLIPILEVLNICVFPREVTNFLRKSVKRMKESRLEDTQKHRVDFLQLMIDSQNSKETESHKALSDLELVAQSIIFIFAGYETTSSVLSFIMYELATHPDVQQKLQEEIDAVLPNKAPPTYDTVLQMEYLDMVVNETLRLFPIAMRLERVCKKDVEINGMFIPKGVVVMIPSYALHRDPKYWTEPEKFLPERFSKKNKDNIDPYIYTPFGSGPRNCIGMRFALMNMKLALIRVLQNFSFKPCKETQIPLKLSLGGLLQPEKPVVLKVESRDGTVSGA

renal clearance fraction (fe) ([1]; PBPK model): 5%
CLint, additional ([1]; PBPK model input): 0.281 µL/min/mg
share of metabolism, undefined metabolism [1, 5]: 6%
CLint, CYP3A4 (CYP3A4; PBPK model input, calculated from estimated fm and mean CL/F): 0.0097 µL/min/pmol
share of metabolism, CYP3A4 (CYP3A4; [5]): 30%
contribution of CYP2C8, fraction metabolized (CYP2C8): around 70%
B:P [3]: 0.73
fugut [3]: 1
fraction unbound ([3]; human, plasma): 0.04
Compound type [4]: Diprotic Base
logP [4]: 2.47
pKa ([4]; two values): 4.97
SMILES: CC(O)c1ccc(CCOc2ccc(CC3SC(=O)NC3=O)cc2)nc1 (stereo not drawn) [Leriglitazone, 5-[[4-[2-[5-(1-hydroxyethyl)pyridin-2-yl]ethoxy]phenyl]methyl]-1,3-thiazolidine-2,4-dione]
Gastrointestinal disorders: E ([2]; 135 mg, N = 9): 2
Gastrointestinal disorders: n (%) ([2]; 135 mg, N = 9): 1 (11)
General disorders and administration site conditions: E ([2]; 135 mg, N = 9): 1
General disorders and administration site conditions: n (%) ([2]; 135 mg, N = 9): 1 (11)
Metabolism and nutrition disorders: E ([2]; 135 mg, N = 9): 1
Metabolism and nutrition disorders: n (%) ([2]; 135 mg, N = 9): 1 (11)
Musculoskeletal and connective tissue disorders: E ([2]; 135 mg, N = 9): 3
Musculoskeletal and connective tissue disorders: n (%) ([2]; 135 mg, N = 9): 3 (33)
Nervous system disorders: E ([2]; 135 mg, N = 9): 5
Nervous system disorders: n (%) ([2]; 135 mg, N = 9): 3 (33)
Renal and urinary disorders: E ([2]; 135 mg, N = 9): 1
Renal and urinary disorders: n (%) ([2]; 135 mg, N = 9): 1 (11)
TEAEs Total: E ([2]; 135 mg, N = 9): 13
TEAEs Total: n (%) ([2]; 135 mg, N = 9): 5 (56)
Eye disorders: E ([2]; 270 mg, N = 8): 2
Eye disorders: n (%) ([2]; 270 mg, N = 8): 1 (13)
Gastrointestinal disorders: E ([2]; 270 mg, N = 8): 4
Gastrointestinal disorders: n (%) ([2]; 270 mg, N = 8): 3 (38)
General disorders and administration site conditions: E ([2]; 270 mg, N = 8): 1
General disorders and administration site conditions: n (%) ([2]; 270 mg, N = 8): 1 (13)
Infections and infestations: E ([2]; 270 mg, N = 8): 2
Infections and infestations: n (%) ([2]; 270 mg, N = 8): 2 (25)
Musculoskeletal and connective tissue disorders: E ([2]; 270 mg, N = 8): 1
Musculoskeletal and connective tissue disorders: n (%) ([2]; 270 mg, N = 8): 1 (13)
Nervous system disorders: E ([2]; 270 mg, N = 8): 3
Nervous system disorders: n (%) ([2]; 270 mg, N = 8): 3 (38)
Respiratory, thoracic and mediastinal disorders: E ([2]; 270 mg, N = 8): 3
Respiratory, thoracic and mediastinal disorders: n (%) ([2]; 270 mg, N = 8): 3 (38)
TEAEs Total: E ([2]; 270 mg, N = 8): 16
TEAEs Total: n (%) ([2]; 270 mg, N = 8): 8 (100)
